Measurements reported in patent publication US20220323406A1, “METHODS AND COMPOSITIONS FOR DIFFERENTIATING STEM CELLS” (Massachusetts Institute of Technology, priority 2019, published 2022).
Where a name gives a salt, the structure may show the parent alone.

Tests used:
[1] = tested on: ENR+CD organoids (ISC to Paneth cell differentiation); assay: Primary screen: basal (non-stimulated) lysozyme secretion LYZ.NS, 2.5-D 384-well ENR+CD organoid differentiation; type: cell-based, mouse; details: primary screen; for Z.LYZ.NS: standard z score
Source text: (§1) High-throughput screening.

[2] = tested on: ENR+CD organoids (ISC to Paneth cell differentiation); assay: Primary screen: CCh-stimulated lysozyme secretion LYZ.S, 2.5-D 384-well ENR+CD organoid differentiation; type: cell-based, mouse; details: primary screen
Source text: as §1

ENR+CD organoids = assay: Primary screen: ATP (CellTiter-Glo 3D, CTG) cell number/viability, 2.5-D 384-well ENR+CD organoids; details: primary screen; for Z.CTG: standard z score;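 on all read-outs here: compounds given at plating and again on day 3 over a 6-day differentiation from ENR+CV stem-cell-enriched precursors, ATP measured on day 6, plate median as control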
[3] = dose 0.08 uM, FC relative to plate median
[4] = dose 0.40 uM, FC relative to plate median
[5] = dose 2.00 uM, FC relative to plate median
[6] = dose 10.00 uM, FC relative to plate median
[7] = 1st dose row of the treatment (0.08 uM by row order; dose not reprinted)
[8] = 2nd dose row of the treatment (0.40 uM by row order; dose not reprinted)
[9] = 3rd dose row of the treatment (2.00 uM by row order; dose not reprinted)
[10] = 4th dose row of the treatment (10.00 uM by row order; dose not reprinted)

Row | SMILES | Dose.FC.LYZ.NS ([1]; dose 0.08 uM) [log2 fold change] | Z.LYZ.NS (standard z score) ([1]; dose 0.08 uM) | Dose.FC.LYZ.NS ([1]; dose 0.40 uM) [log2 fold change] | Z.LYZ.NS (standard z score) ([1]; dose 0.40 uM) | Dose.FC.LYZ.NS ([1]; dose 2.00 uM) [log2 fold change] | Z.LYZ.NS (standard z score) ([1]; dose 2.00 uM) | Dose.FC.LYZ.NS ([1]; dose 10.00 uM) [log2 fold change] | Z.LYZ.NS (standard z score) ([1]; dose 10.00 uM) | Dose.FC.LYZ.S ([2]; dose 0.08 uM) [log2 fold change] | Dose.FC.LYZ.S ([2]; dose 0.40 uM) [log2 fold change] | Dose.FC.LYZ.S ([2]; dose 2.00 uM) [log2 fold change] | Dose.FC.LYZ.S ([2]; dose 10.00 uM) [log2 fold change] | Dose.FC.CTG (ENR+CD organoids; dose 0.08 uM) [log2 fold change] | Dose.FC.CTG (ENR+CD organoids; dose 0.40 uM) [log2 fold change] | Dose.FC.CTG (ENR+CD organoids; dose 2.00 uM) [log2 fold change] | Dose.FC.CTG (ENR+CD organoids; dose 10.00 uM) [log2 fold change] | Z.CTG (standard z score) (ENR+CD organoids; dose 0.08 uM) | Z.CTG (standard z score) (ENR+CD organoids; dose 0.40 uM) | Z.CTG (standard z score) (ENR+CD organoids; dose 2.00 uM) | Z.CTG (standard z score) (ENR+CD organoids; dose 10.00 uM) | further results
1 | CO[C@H]1C[C@@H]2CC[C@@H](C)[C@@](O)(O2)C(=O)C(=O)N2CCCC[C@H]2C(=O)O[C@H]([C@H](C)C[C@@H]2CC[C@@H](OP(C)(C)=O)[C@H](OC)C2)CC(=O)[C@H](C)/C=C(\C)[C@@H](O)[C@@H](OC)C(=O)[C@H](C)C[C@H](C)/C=C/C=C/C=C/1C [Ridaforolimus (Deforolimus, MK-8669)] | – | – | – | – | – | – | – | – | – | – | – | – | – | – | – | – | – | – | – | – | Dose.FC.LYZ.NS [1, 3]: 0.005 log2 fold change; Z.LYZ.NS ([1]; dose 0.08 uM): 0.041; Dose.FC.LYZ.NS [1, 4]: 0.116 log2 fold change; Z.LYZ.NS ([1]; dose 0.40 uM): 1.012; Dose.FC.LYZ.NS [1, 5]: 0.074 log2 fold change; Z.LYZ.NS ([1]; dose 2.00 uM): 0.646; Dose.FC.LYZ.NS [1, 6]: 0.027 log2 fold change; Z.LYZ.NS ([1]; dose 10.00 uM): 0.237; Dose.FC.LYZ.S [2, 3]: 0.050 log2 fold change; Dose.FC.LYZ.S [2, 4]: 0.069 log2 fold change; Dose.FC.LYZ.S [2, 5]: 0.019 log2 fold change; Dose.FC.LYZ.S [2, 6]: 0.039 log2 fold change; Dose.FC.CTG (ENR+CD organoids; [3]): 0.423 log2 fold change; Z.CTG (ENR+CD organoids; dose 0.08 uM): 1.011; Dose.FC.CTG (ENR+CD organoids; [4]): 0.066 log2 fold change; Z.CTG (ENR+CD organoids; dose 0.40 uM): 0.157; Dose.FC.CTG (ENR+CD organoids; [5]): 0.276 log2 fold change; Z.CTG (ENR+CD organoids; dose 2.00 uM): 0.659; Dose.FC.CTG (ENR+CD organoids; [6]): 0.211 log2 fold change; Z.CTG (ENR+CD organoids; dose 10.00 uM): 0.505
2 | CCN(CC)C(=O)c1ccc(C2=CC3(CCNCC3)Oc3cccc(O)c32)cc1 [ADL5859 HCl] | 0.053 | 0.458 | 0.019 | 0.163 | 0.066 | 0.571 | −0.056 | −0.488 | 0.079 | 0.104 | 0.070 | −0.040 | 0.270 | 0.163 | 0.291 | 0.194 | – | – | – | – | –
3 | CC(C)N(CC[C@H](c1ccccc1)c1cc(CO)ccc1O)C(C)C [4CE°8C] | 0.069 | 0.601 | 0.047 | 0.413 | 0.016 | 0.138 | −0.095 | −0.827 | 0.032 | 0.011 | −0.055 | −0.129 | −0.111 | 0.007 | −0.162 | −0.039 | −0.265 | 0.018 | −0.387 | −0.094 | SSMD.LYZ.NS_Rep (strictly standardized mean difference) [1, 7]: 0.497; SSMD.LYZ.NS_Rep (strictly standardized mean difference) [1, 8]: 0.226; SSMD.LYZ.NS_Rep (strictly standardized mean difference) [1, 9]: 0.128; SSMD.LYZ.NS_Rep (strictly standardized mean difference) [1, 10]: −0.861; SSMD.LYZ.S_Rep (strictly standardized mean difference) [2, 7]: 0.194; Z.LYZ.S (standard z score) [2, 7]: 0.205; SSMD.LYZ.S_Rep (strictly standardized mean difference) [2, 8]: 0.053; Z.LYZ.S (standard z score) [2, 8]: 0.073; SSMD.LYZ.S_Rep (strictly standardized mean difference) [2, 9]: −0.217; Z.LYZ.S (standard z score) [2, 9]: −0.358; SSMD.LYZ.S_Rep (strictly standardized mean difference) [2, 10]: −0.707; Z.LYZ.S (standard z score) [2, 10]: −0.836; SSMD.CTG.Rep (strictly standardized mean difference) (ENR+CD organoids; [7]): −0.402; SSMD.CTG.Rep (strictly standardized mean difference) (ENR+CD organoids; [8]): 0.023; SSMD.CTG.Rep (strictly standardized mean difference) (ENR+CD organoids; [9]): −0.340; SSMD.CTG.Rep (strictly standardized mean difference) (ENR+CD organoids; [10]): −0.109
4 | C[C@@H]1COCCN1c1cc(C2(S(C)(=O)=O)CC2)nc(-c2cccc3[nH]ccc23)n1 [AZ20] | 0.042 | 0.365 | −0.140 | −1.222 | −0.215 | −1.868 | −0.261 | −2.271 | −0.038 | −0.236 | −0.373 | −0.329 | −0.210 | −0.218 | −1.054 | −0.573 | −0.500 | −0.521 | −2.519 | −1.368 | –
